Patent publication US6066628A, “Non-iron metalloporphyrins and methods of use” (Emory University, priority 1998, dated 2000)
Read-outs that look alike come from different tables or passages of the source.

How the values were obtained:
[1] = system: S. aureus
[2] = system: S. aureus; experiment: Disc diffusion sensitivity test; assay type: cell-based, Staphylococcus aureus
[3] = system: Vero cells; experiment: Toxicity to mammalian cell monolayers; conditions: 0.5 mg in 1 mL DMEM; 24 hrs
[4] = system: Y. enterocolitica; experiment: microbe, parasite or virus in culture; assay type: cell-based
[5] = system: M. smegmatis; experiment: Disc diffusion sensitivity test; assay type: cell-based, Mycobacterium smegmatis; conditions: disc ~50 μg MP
[6] = system: Y. pseudotuberculosis; assay type: cell-based
[7] = system: E. aerogenes; experiment: Disc diffusion sensitivity test; assay type: cell-based, Enterobacter aerogenes
[8] = system: M. smegmatis; assay type: cell-based, Mycobacterium smegmatis
[9] = system: E. coli; experiment: Disc diffusion sensitivity test; assay type: cell-based, Escherichia coli
[10] = system: M. smegmatis
[11] = system: S. pyogenes A; experiment: Disc diffusion sensitivity test; assay type: cell-based, Streptococcus pyogenes; conditions: disc ~50 μg MP
[12] = system: E. faecalis; experiment: Disc diffusion sensitivity test; assay type: cell-based, Enterococcus faecalis; conditions: disc ~50 μg MP; further: key: -: resistant; N: not determined
[13] = system: methicillin resistant S. aureus IR2419; assay type: cell-based, Staphylococcus aureus; conditions: 1 μg/ml, below the MIC value
[14] = system: Gram-negative bacteria
[15] = system: N. meningitidis; experiment: Disc diffusion sensitivity test; assay type: cell-based; conditions: disc ~50 μg MP
[16] = system: Mycobacterium bovis (BCG); assay type: cell-based
[17] = system: Y. enterocolitica; experiment: Disc diffusion sensitivity test; assay type: cell-based; conditions: disc ~50 μg MP
[18] = system: M. avium
[19] = system: N. gonorrhoeae; experiment: Minimal inhibitory concentration; assay type: cell-based, Neisseria gonorrhoeae; conditions: N. gonorrhoeae MS111; 20 to 24 hours (Table 5)
[20] = system: Staphylococcus carnosus; experiment: Disc diffusion sensitivity test; assay type: cell-based; conditions: 50 μg disc
[21] = system: Ps. aeruginosa; experiment: Disc diffusion sensitivity test; assay type: cell-based, Pseudomonas aeruginosa; conditions: disc ~50 μg MP; further: key: -: resistant; N: not determined
[22] = system: M tuber. H37Pa; experiment: Disc diffusion sensitivity test; assay type: cell-based, Mycobacterium tuberculosis; conditions: disc ~50 μg MP
[23] = system: bacteria; assay type: cell-based

C=CC1=C(C)C2=Cc3c(C=C)c(C)c4[n]3[Ga][n]3c(c(C)c(CCC(=O)O)c3=CC3=NC(=C4)C(C)=C3CCC(=O)O)=CC1=N2 [Ga-PPIX, Gallium (III) protoporphyrin IX chloride]
spontaneous resistance [1]: did not produce spontaneous resistant mutants
diameter (mm) of the inhibition zone ([2]; S. aureus, disc ~50 μg MP): 22 mm
sensitive strains / strains tested (inhibition zones larger or equal 20 mm) ([2]; Staphylococcus aureus, 50 μg disc): 9/9
cytotoxic and/or morphological changes [3]: No visible cytotoxic and/or morphological changes were observed
Minimal inhibitory concentration (MIC) [4]: 0.4
antibacterial activity [4]: inhibitory
sensitivity of hemR mutant [4]: resistant to relatively high concentrations
sensitivity of hemT, hemU, hemV mutants [4]: fully sensitive
MIC ([4]; in µg/mL): 0.4
diameter (mm) of the inhibition zone [5]: 25 mm
MIC ([6]; Y. pseudotuberculosis YP66 (Table 4)): < 0.1 µg/mL
MIC ([6]; Y. pseudotuberculosis YP66 (Table 6), in µg/mL): 0.2-0.4
diameter (mm) of the inhibition zone ([7]; E. aerogenes, disc ~50 μg MP): 22 mm
sensitive strains / strains tested (inhibition zones larger or equal 20 mm) ([7]; Enterobacter aerogenes, 50 μg disc): 1/1
lower MIC in low iron media ([8]; LB+0.2 mM Desferal): 2 fold
antibacterial activity ([8]; M. smegmatis): inhibitory
MIC ([8]; M. smegmatis LR222 (Table 4)): 0.5 µg/mL
Minimal inhibitory concentration (MIC) ([8]; M. smegmatis LR222, LB + Tween 80 (Table 2)): 0.4 µg/mL
MIC ([8]; M. smegmatis LR222, dark (Table 10)): 0.4 µg/mL
diameter (mm) of the inhibition zone ([9]; E. coli, disc ~50 μg MP): 24 mm
sensitive strains / strains tested (inhibition zones larger or equal 20 mm) ([9]; Escherichia coli, 50 μg disc): 16/18
spontaneous resistance [10]: did not produce spontaneous resistant mutants
diameter (mm) of the inhibition zone [11]: -
diameter (mm) of the inhibition zone [12]: -
growth in presence of Ga-PPIX [13]: inhibited growth of S. aureus in the first 20 hours of growth
spontaneous resistance [14]: gave rise to spontaneous resistant colonies
diameter (mm) of the inhibition zone [15]: 24 mm
MIC ([16]; M. bovis (BCG) (Table 4)): 0.4 µg/mL
MIC ([16]; M. bovis (BCG), two weeks (Table 5)): 0.4 µg/mL
diameter (mm) of the inhibition zone [17]: 28 mm
sensitivity (preliminary experiments) ([18]; M. avium): sensitive
MIC ([18]; M. avium ATCC15769 (Table 5)): 1 µg/mL
MIC [19]: 0.1 µg/mL
sensitive strains / strains tested (inhibition zones larger or equal 20 mm) [20]: 1/1
diameter (mm) of the inhibition zone [21]: -
diameter (mm) of the inhibition zone [22]: 36 mm
antibacterial activity [23]: widest spectrum and the highest level of antibacterial activity
